Assay results published in BindingDB's records for doi:10.1016/j.bmcl.2004.03.096 (The University of Newcastle, 2004).

Assay: Concentration required against dynamin-1 GTPase activity of sheep brain.

Row | SMILES | IC50
1 | CCCCCCCCCCCCCCN | 14.9 µM
2 | NCCCCCCCCCCCCN [1,12-diaminododecane] | 39.6 µM
3 | CCCCCCCCCCCCCC[N+](C)(C)CCO [(2-Hydroxy-ethyl)-dimethyl-tetradecyl-ammonium; bromide] | 9.36 µM
4 | CCCC/C=C\C/C=C\C/C=C\C/C=C\CCCC(=O)NCCF [(5Z,8Z,11Z,14Z)-Nonadeca-5,8,11,14-tetraenoic acid (2-fluoro-ethyl)-amide] | > 300 µM
5 | CCCCCCCCCCCC[N+](C)(C)CC [Dodecyl-ethyl-dimethyl-ammonium; bromide] | 10.1 µM
6 | CCCCCCCCCCCCCCN [Tetradecylamine] | 20.2 µM
7 | CCCCCCCCCCCCC(=O)NCCN(C)C [Tridecanoic acid (2-dimethylamino-ethyl)-amide] | 8.85 µM
8 | CCCCCCCCCCCCCCCC[N+](CC)(CC)CC [Triethyl-hexadecyl-ammonium; bromide] | 9.62 µM
9 | CCCCCCCCCCCCCC[N+](CC)(CC)CC [Triethyl-tetradecyl-ammonium; bromide] | 8.45 µM

Continued, values first:

Row | IC50 | SMILES
10 | 7.37 µM | CCCCCCCCCCCCCCOC(CN)CN [2-Tetradecyloxy-propane-1,3-diammonium chloride]
11 | 8.02 µM | CCCCCCCCCCCCCC[N+](C)(C)CCCC [Butyl-dimethyl-tetradecyl-ammonium; bromide]
12 | 8.85 µM | CCCCCCCCCCCCCC[N+](C)(C)CCC [Dimethyl-propyl-tetradecyl-ammonium; bromide]
13 | 10.2 µM | CCCCCCCCCCCCCCCC[P+](CCCC)(CCCC)CCCC [Tributyl-hexadecyl-phosphonium; bromide]
14 | 23 µM | CCCCCCCCCCCCC(=O)OCCN(C)C [Tridecanoic acid 2-dimethylamino-ethyl ester]

Assay: as above
Remark: another data set of the same source

Row | IC50 | SMILES
15 | 8.74 µM | CCCCCCCCCCCCCCN

Assay: Concentration required against dynamin-1 GTPase activity of sheep brain; increased dynamin I GTPase activity at 30 uM.

Row | IC50 | SMILES
16 | > 300 µM | CCCC/C=C\C[C@@H](O)/C=C/C=C/C=C\[C@@H](O)CCCC(=O)O [(6Z,8E,10E,14Z)-(5S,12R)-5,12-Dihydroxy-nonadeca-6,8,10,14-tetraenoic acid]
